Test results published in patent US9057727B2, “Screening methods using G-protein coupled receptors and related compositions” (The General Hospital Corporation, priority 2007, dated 2015).
Ends that are not written are not given here.

Columns and labels:
MC3T3-E1 cells [1] = assay: cAMP in MC3T3-E1 cells, dose-response; type: cell-based; conditions: Table 3; read-out: dose-response cAMP in MC3T3-E1 (EC50)
Protocol: In the 1-30 scaffold, Gly, Ser, Leu, Asn, Gln, Trp, Glu, and Lys were substituted at position 29; Gly, Ser, Leu, Asn, Asp, Trp, and Lys were substituted at position 30; and Ser, Leu, Asn, Val, Trp, Glu, and Lys were substituted at position 31. […] These peptides were tested for cAMP activity in MC3T3-E1 cells.

MC3T3-E1 cells [2] = assay: cAMP screen of EALK-PTHrP(1-31)/(1-34) variants (% parent); type: cell-based
Excerpt: FIGS. 32A and 32B are graphs showing the effects of amino acid substitutions in the 29-31 region of EALK-PTHrP(1-31) (SEQ ID NO:94) (FIG. 32A) and the 29-33 region of EALK-PTHrP(1-34) (SEQ ID NO:112) (FIG. 32B) on induction of cAMP activity in MC3T3-E1 cells. Substitutions at position 29 for EALK-PTHrP(1-31) were G^29 to S^29 (SEQ ID NO:95-96), L^29 (SEQ ID NO:176), and N^29 to K^29 (SEQ ID NO:97-101). Substitutions at position 30 for EALK-PTHrP(1-31) were G^30 to D^30 (SEQ ID NO:102-106), W^30 (SEQ ID NO:177), and K^30 (SEQ ID NO:107). […] Substitutions for EALK-PTHrP(1-34) A^30 to A^33 (SEQ ID NO:113-116) and EALK-PTHrP(1-28)/PTH(29-34) (SEQ ID NO:117).
To optimize the activity of the EALK-PTHrP peptides, we generated EALK-PTHrP([…]) and PTHrP(1-34) variants with substitutions in the 29-33 region. In the 1-30 scaffold, Gly, Ser, Leu, Asn, Gln, Trp, Glu, and Lys were substituted at position 29; Gly, Ser, Leu, Asn, Asp, Trp, and Lys were substituted at position 30; and Ser, Leu, Asn, Val, Trp, Glu, and Lys were substituted at position 31. […] A predicted advantage of these longer-length peptides, relative to the PTHrP(1-30) scaffold, is that they will have longer a longer half-life in circulation due to slower clearance. The C-terminal substitutions were thus designed to provide the added chain length, but to avoid increasing R^0 binding affinity, which occurs when the native PTHrP(29-34) region (SEQ ID NO:186) is installed. These peptides were tested for cAMP activity in MC3T3-E1 cells.

[3] = parent E18,A22,L25,K26-PTHrP(1-34)OH
[4] = parent E18,A22,L25,K26-PTHrP(1-31)OH

Substance: AVSEHQLLHDKGKSIQDERRRAFLLKLIAAIHTA [E18, A22, L25, K26, A30-PTHrP(1-34)OH, E18,A22,L25,K26,A30-PTHrP(1-34)]
- EC50 (MC3T3-E1 cells [1]): 0.14 nM
- screen cAMP (% parent) (MC3T3-E1 cells [2]; [3]): 237 % parent

Substance: AVSEHQLLHDKGKSIQDERRRAFLLKLIADI [E18, A22, L25, K26, D30-PTHrP(1-31)OH, E18,A22,L25,K26,D30-PTHrP(1-31)]
- EC50 (MC3T3-E1 cells [1]): 0.32 nM
- screen cAMP (% parent) (MC3T3-E1 cells [2]; [4]): 251 % parent

Substance: AVSEHQLLHDKGKSIQDERRRAFLLKLIAEAHTA [E18, A22, L25, K26, A31-PTHrP(1-34)OH, E18,A22,L25,K26,A31-PTHrP(1-34)]
- EC50 (MC3T3-E1 cells [1]): 0.15 nM
- screen cAMP (% parent) (MC3T3-E1 cells [2]; [3]): 249 % parent

Substance: AVSEHQLLHDKGKSIQDERRRAFLLKLIAEI [E18, A22, L25, K26-PTHrP(1-31)OH, E18,A22,L25,K26-PTHrP(1-31)]
- EC50 (MC3T3-E1 cells [1]): 0.78 nM
- screen cAMP (% parent) (MC3T3-E1 cells [2]; [4]): 100 % parent

Substance: AVSEHQLLHDKGKSIQDERRRAFLLKLIAEIHTA [E18, A22, L25, K26-PTHrP(1-34)OH, E18,A22,L25,K26-PTHrP(1-34)]
- EC50 (MC3T3-E1 cells [1]): 0.45 nM
- screen cAMP (% parent) (MC3T3-E1 cells [2]; [3]): 100 % parent

Substance: AVSEHQLLHDKGKSIQDERRRAFLLKLIAEL [E18, A22, L25, K26, L31-PTHrP(1-31)OH, E18,A22,L25,K26,L31-PTHrP(1-31)]
- EC50 (MC3T3-E1 cells [1]): 0.25 nM
- screen cAMP (% parent) (MC3T3-E1 cells [2]; [4]): 198 % parent

Substance: E18,A22,L25,K26,A32-PTHrP(1-34) (AVSEHQLLHDKGKSIQDERRRAFLLKLIAEIATA-OH) [E18, A22, L25, K26, A32-PTHrP(1-34)OH]
- screen cAMP (% parent) (MC3T3-E1 cells [2]; [3]): 197 % parent

Substance: E18,A22,L25,K26,A33-PTHrP(1-34) (AVSEHQLLHDKGKSIQDERRRAFLLKLIAEIHAA-OH) [E18, A22, L25, K26, A33-PTHrP(1-34)OH]
- screen cAMP (% parent) (MC3T3-E1 cells [2]; [3]): 196 % parent

Substance: E18,A22,L25,K26,E29-PTHrP(1-31) (AVSEHQLLHDKGKSIQDERRRAFLLKLIEEI-OH) [E18, A22, L25, K26, E29-PTHrP(1-31)OH]
- screen cAMP (% parent) (MC3T3-E1 cells [2]; [4]): 100 % parent

Substance: E18,A22,L25,K26,G29-PTHrP(1-31) (AVSEHQLLHDKGKSIQDERRRAFLLKLIGEI-OH) [E18, A22, L25, K26, G29-PTHrP(1-31)OH]
- screen cAMP (% parent) (MC3T3-E1 cells [2]; [4]): 206 % parent

Substance: E18,A22,L25,K26,G30-PTHrP(1-31) (AVSEHQLLHDKGKSIQDERRRAFLLKLIAGI-OH) [E18, A22, L25, K26, G30-PTHrP(1-31)OH]
- screen cAMP (% parent) (MC3T3-E1 cells [2]; [4]): 286 % parent

Substance: E18,A22,L25,K26,K31-PTHrP(1-31) (AVSEHQLLHDKGKSIQDERRRAFLLKLIAEK-OH) [E18, A22, L25, K26, K31-PTHrP(1-31)OH]
- screen cAMP (% parent) (MC3T3-E1 cells [2]; [4]): 134 % parent

Substance: E18,A22,L25,K26,L30-PTHrP(1-31) (AVSEHQLLHDKGKSIQDERRRAFLLKLIALI-OH) [E18, A22, L25, K26, L30-PTHrP(1-31)OH]
- screen cAMP (% parent) (MC3T3-E1 cells [2]; [4]): 185 % parent

Substance: E18,A22,L25,K26,N29-PTHrP(1-31) (AVSEHQLLHDKGKSIQDERRRAFLLKLINEI-OH) [E18, A22, L25, K26, M29-PTHrP(1-31)OH]
- screen cAMP (% parent) (MC3T3-E1 cells [2]; [4]): 210 % parent

Substance: E18,A22,L25,K26,N30-PTHrP(1-31) (AVSEHQLLHDKGKSIQDERRRAFLLKLIANI-OH) [E18, A22, L25, K26, N30-PTHrP(1-31)OH]
- screen cAMP (% parent) (MC3T3-E1 cells [2]; [4]): 189 % parent

Substance: E18,A22,L25,K26,S31-PTHrP(1-31) (AVSEHQLLHDKGKSIQDERRRAFLLKLIAES-OH) [E18, A22, L25, K26, S31-PTHrP(1-31)OH]
- screen cAMP (% parent) (MC3T3-E1 cells [2]; [4]): 99 % parent

Substance: E18,A22,L25,K26,V31-PTHrP(1-31) (AVSEHQLLHDKGKSIQDERRRAFLLKLIAEV-OH) [E18, A22, L25, K26, V31-PTHrP(1-31)OH]
- screen cAMP (% parent) (MC3T3-E1 cells [2]; [4]): 181 % parent

Substance: E18,A22,L25,K26,W29-PTHrP(1-31) (AVSEHQLLHDKGKSIQDERRRAFLLKLIWEI-OH) [E18, A22, L25, K26, W29-PTHrP(1-31)OH]
- screen cAMP (% parent) (MC3T3-E1 cells [2]; [4]): 142 % parent
